Experimental data reported in patent publication US8299083B2, “PDE5 inhibitor compositions and methods for treating cardiac indications” (The Johns Hopkins University, priority 2004, dated 2012).

Tested on: healthy human volunteers, dobutamine-stimulated cardiac function
Test: Dobutamine stress test before and after oral study drug, randomized double-blind placebo-controlled
Assay type: in vivo
Excerpt: Forty healthy volunteers were recruited from the general population in response to advertisements posted in the surrounding community. Subjects were screened by medical history, physical examination, and transthoracic echocardiogram. Individuals with heart disease, atherosclerosis, hypertension, diabetes mellitus, pulmonary hypertension, renal or hepatic disease, smoking, pregnancy, or under treatment with nitrates, adrenergic-blocking drugs, or medicines known to interfere with sildenafil pharmacokinetics were excluded. […] All subjects were instructed to fast for >6 hours prior to study. […] Intravenous dobutamine (5 μg/kg/min) was then administered for 5 minutes to achieve a stable response, and measurements repeated (D1). Dobutamine was discontinued, and 15 minutes provided to return to the baseline state. […] Data were again recorded for a second baseline (B2), and during a second dobutamine infusion (D2) using the identical protocol as for the first test. Systolic function was determined by cardiac-specific indexes that combined measurements of pressure, dimension, and flow. Arterial pressure was determined by an oscillometric arm cuff ([…] 2-dimensional echo-Doppler measurements by an Agilent Sonos 5500 (Philips, The Netherlands) employing a 3 MHz probe. All echo-Doppler measurements were digitally acquired to optical disc and analyzed offline by a single blinded investigator. Each measurement reflected the average of at least 3 separate beats. Aortic flow was equal to the velocity time-integral from pulse-wave Doppler in the left ventricular outflow tract multiplied by cross sectional […].^83 Stroke volume, peak, and mean flow were determined from this waveform. Cardiac output was the product of heart rate and stroke volume. Systemic vascular resistance was the ratio of mean arterial pressure (1⁄3 pulse pressure+diastolic blood pressure) to cardiac output. Cardiac contractility was assessed by several load-independent indexes. […] Load-independent secondary outcome contractility parameters were mean ventricular power index and the end-systolic pressure/volume ratio, an approximation for ventricular end systolic elastance. Other secondary outcome variables included routine measures of cardiac systolic and diastolic function. Ejection fraction was determined from cardiac end-diastolic and systolic volumes determined by Simpson's method using apical 4- and 2-chamber views. End-diastolic volume was equal to stroke volume (from Doppler) divided by ejection fraction, with end-systolic volume equal to the difference of the former and latter. Pulse-wave Doppler spectra of transmittal inflow and tissue Doppler imaging of the lateral mitral annular (E') velocities were used to assess diastolic function.^89 The ratio of E/E' was determined as a surrogate marker of left ventricular filling pressures as previously validated^90. Isovolumic relaxation time was measured by continuous wave Doppler as the time between aortic flow cessation and onset of mitral inflow. All statistical analysis was performed using Systat® software. Results are expressed as mean±standard deviation. […] The primary test was a test between group analysis of whether sildenafil (versus placebo) altered the disparity between the first and second dobutamine response, and determined by a three-way interaction term that included each grouping factor. […] Within group analysis was also performed using a 2-tailed Student's paired t-test to assess individual dobutamine responses ([…]2), and a 2-way ANOVA to test whether study drug altered this response within in each group. Categorical variables were compared using the Chi-squared test.

[1] = dobutamine-induced change after sildenafil
[2] = resting baseline after vs before 100 mg oral sildenafil
[3] = second versus initial dobutamine response

CCCc1nn(C)c2c(=O)[nH]c(-c3cc(S(=O)(=O)N4CCN(C)CC4)ccc3OCC)nc12 [sildenafil]
dobutamine-induced change in ventricular end-systolic elastance (after sildenafil 100 mg oral): 0.84±0.9 mmHg/ml | dobutamine-induced increase in ejection fraction (absolute change) (after sildenafil 100 mg oral): 4±5% | dobutamine-induced increase in heart rate (after sildenafil 100 mg oral): +14.5±4.7 bpm | dobutamine-mediated drop in peripheral resistance (after sildenafil 100 mg oral): not modified | diastolic changes induced by dobutamine (compared to placebo): did not significantly alter diastolic changes induced by dobutamine | A velocity, D2 − B2 [1]: 11 ± 7 cm/s | E velocity, D2 − B2 [1]: 12 ± 11 cm/s | E′ velocity, D2 − B2 [1]: 1.5 ± 2.4 cm/s | IVRT, D2 − B2 [1]: −20 ± 13 | A velocity, Δ(B2 − B1) [2]: -3 ± 8 cm/s | Diastolic Blood Pressure, Δ(B2 − B1) [2]: −6 ± 5 mmHg | E velocity, Δ(B2 − B1) [2]: -4 ± 12 cm/s | Ejection Fraction, Δ(B2 − B1) [2]: +6 ± 2 | End Systolic Elastance, Δ(B2 − B1) [2]: +0.4 ± 0.2 mmHg/mL | E′ velocity, Δ(B2 − B1) [2]: +0 ± 3 cm/sec | Heart Rate, Δ(B2 − B1) [2]: +0 ± 3 min^−1 | IVRT, Δ(B2 − B1) [2]: +8 ± 12 msec | Stroke Volume, Δ(B2 − B1) [2]: +5 ± 6 mL | Systolic Blood Pressure, Δ(B2 − B1) [2]: −6 ± 3 mmHg | Total Peripheral Resistance, Δ(B2 − B1) [2]: −170 ± 60 dyne * s/cm^5 | reduction of dobutamine-induced ejection fraction change [3]: 66±64% | reduction of dobutamine-induced end-systolic elastance change [3]: 56±63% | reduction of dobutamine-induced peak power change [3]: 32±34% | adverse events (single 100 mg oral dose, healthy volunteers): no adverse events
